Assay results from PubChem BioAssay (NCI).
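The compound was tested at five concentrations on cells cultured in 96-well plates, with a 48-hour exposure period. GI50 is the concentration that inhibits growth by half. TGI: concentration producing complete growth inhibition.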

Experiments:
Experiment in all cases: NCI anticancer screen, dose series, 48 h
HCT-116 colon = tested on: HCT-116 colon
U251 CNS = tested on: U251 CNS
SK-MEL-2 melanoma = tested on: SK-MEL-2 melanoma
SK-MEL-28 melanoma = tested on: SK-MEL-28 melanoma
A549 NSCLC = tested on: A549 NSCLC
RPMI-8226 leukemia = tested on: RPMI-8226 leukemia
OVCAR-4 ovarian = tested on: OVCAR-4 ovarian
SW-620 colon = tested on: SW-620 colon
HCC-2998 colon = tested on: HCC-2998 colon
RXF 393 renal = tested on: RXF 393 renal

Row | Structure (SMILES) | GI50 (HCT-116 colon) [µM] | TGI (HCT-116 colon) [µM] | GI50 (U251 CNS) [µM] | TGI (U251 CNS) [µM] | GI50 (SK-MEL-2 melanoma) [µM] | TGI (SK-MEL-2 melanoma) [µM] | GI50 (SK-MEL-28 melanoma) [µM] | TGI (SK-MEL-28 melanoma) [µM] | GI50 (A549 NSCLC) [µM] | TGI (A549 NSCLC) [µM] | GI50 (RPMI-8226 leukemia) [µM] | TGI (RPMI-8226 leukemia) [µM] | GI50 (OVCAR-4 ovarian) [µM] | TGI (OVCAR-4 ovarian) [µM] | GI50 (SW-620 colon) [µM] | TGI (SW-620 colon) [µM] | GI50 (HCC-2998 colon) [µM] | TGI (RXF 393 renal) [µM] | TGI (HCC-2998 colon) [µM] | GI50 (RXF 393 renal) [µM]
1 | c1cncc(CNc2ccccc2-c2nnc(Nc3ccc4c(c3)OCO4)o2)c1 | 0.0516 | > 100 | 0.0452 | > 42.8 | 0.052 | 91.9 | 0.0654 | > 100 | 0.0686 | > 100 | 0.16 | > 100 | 1 | > 100 | 0.0413 | > 100 | 0.113 |  |  | 
2 | COc1ccc(/C=C/C(=O)c2sc(N)nc2C)cc1 |  |  |  | > 100 |  | > 100 |  | > 100 |  | > 100 |  | > 100 |  |  |  | > 100 |  | > 100 | > 100 | 
3 | Cc1ccc(/C=C(\C#N)n2nnc3cc(Cl)c(Cl)cc32)cc1 | 1.54 | 3 |  |  | 3.96 | > 100 | 2.05 | 4.77 | 3.58 | > 100 | 1.7 | 4.91 | 2.69 | 81.5 |  |  | 1.9 | 5.69 | 4.12 | 2.01
4 | CC(C)c1cc(C(C)C)c(S(=O)(=O)NN)c(C(C)C)c1 |  | > 100 |  | > 100 |  | > 100 |  | > 100 |  | > 100 |  | > 100 |  | > 100 |  | > 100 |  | > 100 |  | 
5 | CCOC(=O)CC(=O)ON(C)C(=O)Cc1ccccc1 |  | > 100 |  | > 100 |  | > 100 |  |  |  | > 100 |  | > 100 |  | > 100 |  | > 100 |  |  |  | 
6 | COc1ccc(/C=C2\N=C(c3ccccc3)OC2=O)c(OCc2ccccc2)c1 |  | > 100 |  |  |  |  |  | > 100 |  | > 100 |  | > 100 |  | 47.7 |  | > 100 |  |  | > 100 | 
7 | N=C(N)n1ncc(Cl)c(Cl)c1=O |  | 3.32 |  | 20 |  | 6.93 |  | 5.26 |  | 33.6 |  | 7.55 |  | 3.41 |  | 3.75 |  |  |  | 
8 | CC(=O)CC(=O)CCCC(=O)Nc1ccc(Cl)cc1C |  | > 100 |  | > 100 |  | > 100 |  |  |  | > 100 |  | > 100 |  | > 100 |  | > 100 |  |  | > 100 | 
9 | C/C(CN1C(=O)c2ccccc2C1=O)=N\NS(=O)(=O)c1ccccc1 |  | > 100 |  | > 100 |  | > 100 |  | > 100 |  | > 100 |  | > 100 |  | > 100 |  | > 100 |  |  | > 100 | 
10 | O=[N+]([O-])c1cccc(C2SCc3nc4ccccc4n32)c1 (stereo not given) |  |  |  | > 100 |  | > 100 |  | > 100 |  | > 100 |  |  |  | > 100 |  | > 100 |  | > 100 |  | 
11 | Cc1ccc2nc3c(Cl)cc(=O)cc-3sc2c1 |  | 32.2 |  | 45.5 |  |  |  | 81.4 |  | 43 |  |  |  | 30.7 |  | 43.5 |  |  |  | 
12 | C/C(=N\NC(=O)CC(=O)Nc1ccc(C)cc1)c1cc2ccccc2oc1=O |  | > 100 |  | > 100 |  | > 100 |  | > 100 |  | > 100 |  | > 100 |  |  |  | > 100 |  | > 100 |  | 
